Assay results from patent publication US20260365653A1, “IRREVERSIBLE MUTEGFR INHIBITORS” (Bayer Aktiengesellschaft, priority 2022, published 2026).

Columns and labels:
[1] = target: T1, mutEGFR (D770_N771insSVD) (Homo sapiens, UniProt P00533, DUP768-770); assay: Exon20-Mutant-EGFR (D770_N771insSVD) kinase assay (TR-FRET); assay type: biochemical; details: mutEGFR (D770_N771insSVD) kinase assay IC50, Table 2a; D770_N771insSVD; 2 mM ATP
T1 construct: GST-EGFR #3 (SVD between D770 and N771); made in house; host or cells: Sf9 insect cells (baculovirus)

[2] = target: T2, mutEGFR (D770_N771insNPG, T790) (Homo sapiens, UniProt P00533, INS770NPG/T790M); assay: mutEGFR (D770_N771insNPG, T790) kinase assay; assay type: biochemical; details: Table 2a, D770_N771insNPG
T2 construct: exact insNPG construct not described; in-house EGFR proteins were N-terminal GST fusions from baculovirus/insect cells (borders R669-A1210 given only for WT, insSVD, insASV)
From the text: The different EGFR proteins used in the biochemical kinase activity inhibition assays were generated inhouse by expression in insect cells using Baculo Virus system and subsequent purification as described in the following paragraphs.
The cDNAs encoding the various protein sequences from human EGFR human (P00533) were optimized for expression in eukaryotic cells and synthesized by the GeneArt Technology at Life Technologies.

[3] = system: BA/F3 (insSVD) cells; assay: Ba/F3-EGFR-insSVD cell survival assay (Cell Titer-Glo); assay type: cell-based; details: Table 3a, cell survival, Cell Titer-Glo, with 10 ng/ml EGF, without IL-3
Procedure: Cellular Data Description (WT, insSVD, insSVD T790M) 293T cells from ATCC were transfected with pBABEpuro expression constructs for WT EGFR or EGFR-insSVD, or EGFR-insSVD T790M, and pCL-Eco packaging vector using Fugene-6 transfection reagent from Promega. Plates were incubated at 37° C. for 48 h. Retrovirus was harvested by filtering the media supernatant through a 0.45 μm filter.
Ba/F3 cells purchased from DSMZ were grown in RPMI+10% FBS+10 ng/ml IL-3 and infected with filtered retroviral supernatant at a 1:2 dilution. Polybrene was added to a concentration of 8 μg/mL, plates were spun for 90 min, and incubated for 16 h at 37° C. 2 μg/mL puromycin was added to the infected cells 24 h after infection and cells were continually grown in the presence of puromycin and 10 ng/ml IL-3. Following stably expressing Ba/F3 cell lines were generated: Ba/F3-EGFR-WT, Ba/F3-EGFR-insSVD, Ba/F3-EGFR-insSVD T790M, (Ba/F3-vector-control).
For cell survival assays, Ba/F3 cells were grown to a density of 1-2 million cells per mL, spun down and resuspended in media without IL-3, and replated at a concentration of 200,000-500,000 cells per mL. The cells ectopically expressing WT EGFR, EGFR-insSVD, or EGFR-insSVD T790M were plated with 10 ng/ml Millipore Culture grade EGF. The cells ectopically expressing pBABEpuro empty vector were plated with 10 ng/mL IL-3.
2 days later, cells were plated in 50 µL in a 384 well plate at a concentration of 4000 cells per well for cells assayed in the absence of IL-3 and 2000 cells per well for cells assayed in the presence of IL-3. 100 nL of compound was added to each well using a 100 nL pin head, and plates were incubated at 37° C. for 48 h.
Cell viability was measured by adding 20 μL of Cell Titer-Glo Luminescent Cell Viability Reagent diluted 1:3 in PBS. Plates were sealed with Perkin Elmer Top-Seal, inverted several times to mix, and immediately centrifuged at 1000 rpm for 2 min. Plates were incubated in low light conditions for 8-10 min and luminescence was measured.

T2 sequence (P00533 with tags, fused parts or gaps INS770NPG/T790M limits assumed): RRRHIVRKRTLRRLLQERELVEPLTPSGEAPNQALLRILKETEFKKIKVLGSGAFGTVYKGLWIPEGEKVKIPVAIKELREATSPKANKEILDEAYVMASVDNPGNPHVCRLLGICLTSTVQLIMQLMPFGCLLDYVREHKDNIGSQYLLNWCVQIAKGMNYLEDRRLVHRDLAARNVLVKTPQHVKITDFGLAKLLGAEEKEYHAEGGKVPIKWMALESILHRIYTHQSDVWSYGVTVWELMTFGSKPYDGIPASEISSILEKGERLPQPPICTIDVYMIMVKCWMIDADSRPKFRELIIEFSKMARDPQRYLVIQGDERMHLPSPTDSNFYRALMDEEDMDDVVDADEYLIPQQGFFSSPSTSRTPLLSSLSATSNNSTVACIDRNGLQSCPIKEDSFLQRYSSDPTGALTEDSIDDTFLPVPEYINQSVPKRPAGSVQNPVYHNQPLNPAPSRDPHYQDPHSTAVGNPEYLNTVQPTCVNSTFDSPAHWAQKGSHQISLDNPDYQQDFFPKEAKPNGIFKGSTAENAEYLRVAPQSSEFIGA
T1 sequence (P00533 with tags, fused parts or gaps DUP768-770): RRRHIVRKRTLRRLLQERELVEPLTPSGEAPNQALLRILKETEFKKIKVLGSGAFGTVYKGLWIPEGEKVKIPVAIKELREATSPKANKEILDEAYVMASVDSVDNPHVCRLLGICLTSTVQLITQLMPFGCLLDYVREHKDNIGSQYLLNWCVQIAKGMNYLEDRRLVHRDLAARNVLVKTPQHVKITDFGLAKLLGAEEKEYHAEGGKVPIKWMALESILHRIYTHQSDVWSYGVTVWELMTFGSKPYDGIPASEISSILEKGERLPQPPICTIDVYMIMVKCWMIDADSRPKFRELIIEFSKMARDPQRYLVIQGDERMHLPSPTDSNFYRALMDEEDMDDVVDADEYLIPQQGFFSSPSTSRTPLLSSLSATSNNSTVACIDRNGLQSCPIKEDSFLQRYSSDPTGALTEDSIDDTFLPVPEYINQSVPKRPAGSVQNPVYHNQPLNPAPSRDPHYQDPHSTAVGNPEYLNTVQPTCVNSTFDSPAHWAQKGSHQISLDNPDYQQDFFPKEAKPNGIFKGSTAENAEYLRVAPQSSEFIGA

Row | Compound | IC50 [1] | IC50 [2] | IC50 ([3]; Mus musculus, BaF3, 48 h) | IC50 ([3]; 48 h)
1 | C=CC(=O)N1Cc2c(-c3ccncc3)c(-c3ccc(F)cc3)nn2C(C(=O)NC)C1 (single isomer, unassigned; isomer 1) [Example 205, 5-acryloyl-2-(4-fluorophenyl)-N-methyl-3-(pyridin-4-yl)-4,5,6,7-tetrahydropyrazolo[1,5-a]pyrazine-7-carboxamide (isomer 1)] | 137 nM | 144 nM | 824 nM | 
2 | C=CC(=O)N1Cc2c(-c3ccncc3)c(-c3ccc(F)cc3)nn2C(C(=O)N(C)C)C1 (single isomer, unassigned; isomer 1) [Example 206, 5-acryloyl-2-(4-fluorophenyl)-N,N-dimethyl-3-(pyridin-4-yl)-4,5,6,7-tetrahydropyrazolo[1,5-a]pyrazine-7-carboxamide (isomer 1)] | 55.3 nM | 82.9 nM | 600 nM | 
3 | C=CC(=O)N1CCn2nc(-c3ccc(F)cc3)c(-c3ccnc4[nH]ccc34)c2C1C (single isomer, unassigned; isomer 1) [Example 249, 1-(2-(4-fluorophenyl)-4-methyl-3-(1H-pyrrolo[2,3-b]pyridin-4-yl)-6,7-dihydropyrazolo[1,5-a]pyrazin-5(4H)-yl) prop-2-en-1-one (isomer 1)] | 372 nM | 57.5 nM | 98.7 nM | 
4 | CC1c2c(-c3ccnc4[nH]ccc34)c(-c3ccc(F)cc3)nn2CCN1C(=O)/C=C/CN(C)C (single isomer, unassigned; isomer 1) [Example 255, 4-(dimethylamino)-1-[2-(4-fluorophenyl)-4-methyl-3-(1H-pyrrolo[2,3-b]pyridin-4-yl)-6,7-dihydropyrazolo[1,5-a]pyrazin-5(4H)-yl]but-2-en-1-one (isomer 1)] | 3180 nM | 9610 nM | 296 nM | 
5 | C=CC(=O)N1CCn2nc(-c3ccc(C(F)(F)F)cc3)c(-c3ccnc4[nH]ccc34)c2C1C (single isomer, unassigned; isomer 1) [Example 258, 1-(4-methyl-3-(1H-pyrrolo[2,3-b]pyridin-4-yl)-2-(4-(trifluoromethyl)phenyl)-6,7-dihydropyrazolo[1,5-a]pyrazin-5(4H)-yl) prop-2-en-1-one (isomer 1)] | 100 nM | 1070 nM |  | 82.6 nM
6 | C=CC(=O)N1CCn2nc(-c3ccc(C(F)(F)F)cc3)c(-c3ccnc4[nH]cc(C)c34)c2C1C (single isomer, unassigned; isomer 1) [Example 259, 1-(4-methyl-3-(3-methyl-1H-pyrrolo[2,3-b]pyridin-4-yl)-2-(4-(trifluoromethyl)phenyl)-6,7-dihydropyrazolo[1,5-a]pyrazin-5(4H)-yl) prop-2-en-1-one (isomer 1)] | 683 nM | 13300 nM | 296 nM | 
7 | C=CC(=O)N1CCn2nc(-c3ccc(F)cc3)c(-c3ccnc4[nH]cc(C)c34)c2C1C (single isomer, unassigned; isomer 1) [Example 262, 1-(2-(4-fluorophenyl)-4-methyl-3-(3-methyl-1H-pyrrolo[2,3-b]pyridin-4-yl)-6,7-dihydropyrazolo[1,5-a]pyrazin-5(4H)-yl) prop-2-en-1-one (isomer 1)] | 1620 nM | 396 nM |  | 452 nM
8 | CC1c2c(-c3ccnc4[nH]ccc34)c(-c3ccc(C(F)(F)F)cc3)nn2CCN1C(=O)/C=C/CN(C)C (single isomer, unassigned; isomer 1) [Example 264, (E)-4-(dimethylamino)-1-(4-methyl-3-(1H-pyrrolo[2,3-b]pyridin-4-yl)-2-(4-(trifluoromethyl)phenyl)-6,7-dihydropyrazolo[1,5-a]pyrazin-5(4H)-yl) but-2-en-1-one (isomer 1)] | 765 nM | 1130 nM |  | 128 nM
9 | Cc1c[nH]c2nccc(-c3c(-c4ccc(C(F)(F)F)cc4)nn4c3C(C)N(C(=O)/C=C/CN(C)C)CC4)c12 (single isomer, unassigned; isomer 1) [Example 265, (E)-4-(dimethylamino)-1-(4-methyl-3-(3-methyl-1H-pyrrolo[2,3-b]pyridin-4-yl)-2-(4-(trifluoromethyl)phenyl)-6,7-dihydropyrazolo[1,5-a]pyrazin-5(4H)-yl) but-2-en-1-one (isomer 1)] | 4040 nM | 6300 nM |  | 172 nM
10 | Cc1c[nH]c2nccc(-c3c(-c4ccc(F)cc4)nn4c3C(C)N(C(=O)/C=C/CN(C)C)CC4)c12 (single isomer, unassigned; isomer 1) [Example 268, (E)-4-(dimethylamino)-1-(2-(4-fluorophenyl)-4-methyl-3-(3-methyl-1H-pyrrolo[2,3-b]pyridin-4-yl)-6,7-dihydropyrazolo[1,5-a]pyrazin-5(4H)-yl) but-2-en-1-one (isomer 1)] | 940 nM | 446 nM |  | 279 nM
11 | C=CC(=O)N1Cc2c(-c3ccncc3)c(-c3ccc(OC)cc3)nn2C(C)C1 (single isomer, unassigned; isomer 1) [Example 274, 1-[2-(4-methoxyphenyl)-7-methyl-3-(pyridin-4-yl)-6,7-dihydropyrazolo[1,5-a]pyrazin-5(4H)-yl]prop-2-en-1-one (isomer 1)] | 1.35 nM | 3.11 nM |  | 34.1 nM
12 | C=CC(=O)N1CCn2nc(-c3ccc(Cl)cc3F)c(-c3ccncc3)c2C1C (single isomer, unassigned; isomer 1) [Example 278, 1-[2-(4-chloro-2-fluorophenyl)-4-methyl-3-(pyridin-4-yl)-6,7-dihydropyrazolo[1,5-a]pyrazin-5(4H)-yl]prop-2-en-1-one (isomer 1)] | 0.204 nM | 0.551 nM |  | 9.07 nM
13 | C=CC(=O)N1Cc2c(-c3ccncc3)c(-c3ccc(Cl)cc3F)nn2C(C)C1 (single isomer, unassigned; isomer 1) [Example 282, 1-[2-(4-chloro-2-fluorophenyl)-7-methyl-3-(pyridin-4-yl)-6,7-dihydropyrazolo[1,5-a]pyrazin-5(4H)-yl]prop-2-en-1-one (isomer 1)] | 0.117 nM | 0.282 nM | 6.15 nM | 
14 | CC1c2c(-c3ccncc3)c(-c3ccc(Cl)cc3F)nn2CCN1C(=O)/C=C/CN(C)C (single isomer, unassigned; isomer 1) [Example 285, (2E)-1-[2-(4-chloro-2-fluorophenyl)-4-methyl-3-(pyridin-4-yl)-6,7-dihydropyrazolo[1,5-a]pyrazin-5(4H)-yl]-4-(dimethylamino)but-2-en-1-one (isomer 1)] | 0.232 nM | 0.644 nM |  | 42 nM
15 | CC1CN(C(=O)/C=C/CN(C)C)Cc2c(-c3ccncc3)c(-c3ccc(Cl)cc3F)nn21 (single isomer, unassigned; isomer 1) [Example 287, (2E)-1-[2-(4-chloro-2-fluorophenyl)-7-methyl-3-(pyridin-4-yl)-6,7-dihydropyrazolo[1,5-a]pyrazin-5(4H)-yl]-4-(dimethylamino)but-2-en-1-one (isomer 1)] | 0.22 nM | 0.415 nM | 37.3 nM | 
16 | C=CC(=O)N1C(C)c2c(-c3ccncc3)c(-c3ccc(Cl)cc3F)nn2C[C@@H]1C (single isomer, unassigned; isomer 1) [Example 292] | 0.129 nM | 0.34 nM |  | 4.08 nM
